target: human cGAS (residues 161-522) (Homo sapiens (Human), UniProt Q8N884); experiment: Malachite Green assay to measure cGAS activity (coupled enzymatic assay, phosphate detection); assay type: biochemical; settings: recombinant human cGAS (residues 161-522) 25 nM, 80 μM GTP, 100 nM ISD, 4 hour at RT, absorbance 620 nm
Experimental: Malachite Green Assay to Measure cGAS Activity Compounds were tested for cGAS inhibition in a coupled enzymatic assay based on Phosphate detection by Malachite Green. Final assay conditions were 20 mM TRIS pH 7.5 (Applichem), 5 mM MgCl2 (Sigma) and 0.01% BSA (Sigma) supplemented with […] (Sigma), 80 μM GTP (Sigma) and 100 nM Interferon Stimulating DNA (ISD) (Microsynth). Recombinantly expressed purified human cGAS (residues 161-522) was used at 25 nM. All compounds were prepared as 10 mM stock solutions in DMSO and a 16 pt dilution series in DMSO with a dilution factor of 2.5 was prepared. 1 μL of DMSO dilution series was transferred to 32.3 μL reaction buffer, mixed by pipetting up/down, spun for 1 minute at 3000 rpm and was visually inspected for precipitation. 5 μL of 3-fold enzyme stock solution were transferred to an empty 384-well Black/Clear Flat Bottom Polystyrene NBS (Corning) rows 3-24. Rows 1-2 were filled with assay buffer. Plates were spun 10 seconds at 1000 rpm (164×g). 5 μL of compound intermediate dilution was added and mixed by pipetting up/down to rows 3-24. Rows 1-2 were filled with 3.1% DMSO assay buffer. Plates were spun 10 seconds at 1000 rpm (164×g). 5 μL 3-fold Nucleotide/DNA mix was added to all wells to start the reaction. Plates were spun 10 seconds at 1000 rpm (164×g) and incubated for 4 hour at room temperature (RT) in the dark. 5 μL 4 U/mL PPase (Sigma) were added to all wells. Plates spun 10 seconds at 1000 rpm (164×g). 10 μL BioMol green Solution (Enzo Life Sciences) was added to all wells. Plates spun 10 seconds at 1000 rpm (164×g) and incubated 30 minutes at RT in the dark. Absorbance data was collected 620 nm on an EnVision Multilable Reader (Perkin Elmer) and the following measurement settings were used: excitation filter photometric was 620 nm; excitation from the top; measurement height was 1 mm; number of flashes was 30; number of flashes integrated was 1. All plates are checked for abnormalities and outliers in the Blank Control (no protein, row 1) and the Neutral Control (no compound, row 2) are excluded using the 3*SD rule. Data was normalized to 0 and 100% by Blank and Neutral Control and each curve was fitted and judged using the 4 parameter logistic equation to determine the IC50 for cGAS inhibition. Table 1 provides IC50 values (μM) for cGAS inhibition obtained for particular examples of the present invention as measured by the above-described assay.

Sequence of human cGAS (residues 161-522) (Q8N884 161-522): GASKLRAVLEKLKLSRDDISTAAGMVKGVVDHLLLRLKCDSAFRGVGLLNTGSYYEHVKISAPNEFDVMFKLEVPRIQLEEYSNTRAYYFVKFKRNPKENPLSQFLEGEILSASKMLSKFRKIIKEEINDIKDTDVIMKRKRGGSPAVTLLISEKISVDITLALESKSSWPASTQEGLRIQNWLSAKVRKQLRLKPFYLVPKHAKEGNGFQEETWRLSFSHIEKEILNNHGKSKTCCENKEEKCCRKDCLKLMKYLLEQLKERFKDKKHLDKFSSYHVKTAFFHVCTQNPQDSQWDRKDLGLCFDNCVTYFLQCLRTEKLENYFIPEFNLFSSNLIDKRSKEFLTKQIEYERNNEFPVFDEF

SMILES	IC50
O=C(O)c1cc(-c2ccc(C3CC3)cc2Cl)cc2[nH]cnc12 [Example 1, 6-(2-Chloro-4-cyclopropylphenyl)-1-benzimidazole-4-carboxylic acid]	4680 nM
Cc1cc(Cl)c(-c2cc(C(=O)O)c3nc[nH]c3c2)cc1F [Example 2, 6-(2-Chloro-5-fluoro-4-methylphenyl)-1H-benzo[d]imidazole-4-carboxylic acid]	540 nM
Cc1ccc(-c2cc(C(=O)O)c3nc[nH]c3c2)c(Cl)c1 [Example 3, 6-(2-Chloro-4-methylphenyl)-1H-benzo[d]imidazole-4-carboxylic acid]	550 nM
O=C(O)c1cc(-c2ccc(C(F)(F)F)cc2Cl)cc2[nH]cnc12 [Example 5, 6-(2-Chloro-4-(trifluoromethyl)phenyl)-1H-benzo[d]imidazole-4-carboxylic acid]	3260 nM
Cc1cc(Cl)ccc1-c1cc(C(=O)O)c2nc[nH]c2c1 [Example 6, 6-(4-Chloro-2-methylphenyl)-1H-benzo[d]imidazole-4-carboxylic acid]	2080 nM
Cc1ccc(-c2cc(C(=O)O)c3nc(CN4CCN5C(=O)CCC5C4)[nH]c3c2)c(Cl)c1 (centres unmarked) [Example 7, 6-(2-Chloro-4-methylphenyl)-2-[(6-oxo-1,3,4,7,8,8a-hexahydropyrrolo[1,2-a]pyrazin-2-yl)methyl]-1H-benzimidazole-4-carboxylic acid]	260 nM
Cc1ccc(-c2cc(C(=O)O)c3nc(CN4CCN(CC(F)(F)F)CC4)[nH]c3c2)c(Cl)c1 [Example 8, 6-(2-Chloro-4-methylphenyl)-2-((4-(2,2,2-trifluoroethyl)piperazin-1-yl)methyl)-1H-benzo[d]imidazole-4-carboxylic acid]	590 nM
Cc1ccc(-c2cc(C(=O)O)c3nc(CN4CCN(Cc5ccccc5)C(=O)C4)[nH]c3c2)c(Cl)c1 [Example 10, 2-[(4-Benzyl-3-oxopiperazin-1-yl)methyl]-6-(2-chloro-4-methylphenyl)-1H-benzimidazole-4-carboxylic acid]	510 nM
Cc1ccc(-c2cc(C(=O)O)c3nc(CN4CCNC(C(F)(F)F)C4)[nH]c3c2)c(Cl)c1 (centres unmarked) [Example 11, 6-(2-Chloro-4-methylphenyl)-2-[[3-(trifluoromethyl)piperazin-1-yl]methyl]-1H-benzimidazole-4-carboxylic acid]	600 nM
Cc1ccc(-c2cc(C(=O)O)c3nc(CO)[nH]c3c2)c(Cl)c1 [Example 13, 6-(2-Chloro-4-methylphenyl)-2-(hydroxymethyl)-1H-benzimidazole-4-carboxylic acid]	550 nM
Cc1ccc(-c2cc(C(=O)O)c3nc(CN(C)c4ccccc4)[nH]c3c2)c(Cl)c1 [Example 17, 6-(2-Chloro-4-methylphenyl)-2-[(N-methylanilino)methyl]-1H-benzimidazole-4-carboxylic acid]	1230 nM
Cc1ccc(-c2cc(C(=O)O)c3nc(CN4CCN(Cc5ccccc5)CC4)[nH]c3c2)c(Cl)c1 [Example 18, 2-[(4-Benzylpiperazin-1-yl)methyl]-6-(2-chloro-4-methylphenyl)-1H-benzimidazole-4-carboxylic acid]	140 nM
Cc1ccc(-c2cc(C(=O)O)c3nc(CN4CCN(c5ccccc5)CC4)[nH]c3c2)c(Cl)c1 [Example 19, 6-(2-Chloro-4-methylphenyl)-2-[(4-phenylpiperazin-1-yl)methyl]-1H-benzimidazole-4-carboxylic acid]	1250 nM
Cc1ccc(-c2cc(C(=O)O)c3nc(CN4CCC(O)CC4)[nH]c3c2)c(Cl)c1 [Example 21, 6-(2-Chloro-4-methylphenyl)-2-[(4-hydroxypiperidin-1-yl)methyl]-1H-benzimidazole-4-carboxylic acid]	410 nM
Cc1ccc(-c2cc(C(=O)O)c3nc(CNc4ccccc4)[nH]c3c2)c(Cl)c1 [Example 25, 2-(Anilinomethyl)-6-(2-chloro-4-methylphenyl)-1H-benzimidazole-4-carboxylic acid]	690 nM
Cc1ccc(-c2cc(C(=O)O)c3nc(Cc4ccc(Cl)cc4)[nH]c3c2)c(Cl)c1 [Example 27, 6-(2-Chloro-4-methylphenyl)-2-[(4-chlorophenyl)methyl]-1H-benzimidazole-4-carboxylic acid]	1480 nM
Cc1ccc(-c2cc(C(=O)O)c3nc(CN(C)C)[nH]c3c2)c(Cl)c1 [Example 29, 6-(2-Chloro-4-methylphenyl)-2-[(dimethylamino)methyl]-1H-benzimidazole-4-carboxylic acid]	590 nM
Cc1ccc(-c2cc(C(=O)O)c3nc(C(F)(F)F)[nH]c3c2)c(Cl)c1 [Example 30, 6-(2-Chloro-4-methylphenyl)-2-(trifluoromethyl)-1H-benzimidazole-4-carboxylic acid]	3020 nM
Cc1ccc(-c2cc(C(=O)O)c3nc(NCc4ccccc4)[nH]c3c2)c(Cl)c1 [Example 31, 2-(Benzylamino)-6-(2-chloro-4-methylphenyl)-1H-benzo[d]imidazole-4-carboxylic acid]	840 nM
Cc1ccc(-c2cc(C(=O)O)c3nc(C)[nH]c3c2)c(Cl)c1 [Example 32]	2410 nM

Continued by falling IC50, values first:

IC50	SMILES
4370 nM	CCOc1ccc(-c2cc(C(=O)O)c3nc[nH]c3c2)c(Cl)c1 [Example 4, 6-(2-Chloro-4-ethoxyphenyl)-1H-benzo[d]imidazole-4-carboxylic acid]
1510 nM	CC(=O)N1CCN(Cc2nc3c(C(=O)O)cc(-c4ccc(C)cc4Cl)cc3[nH]2)CC1 [Example 16, 2-[(4-Acetylpiperazin-1-yl)methyl]-6-(2-chloro-4-methylphenyl)-1H-benzimidazole-4-carboxylic acid]
1160 nM	Cc1ccc(-c2cc(C(=O)O)c3nc(Nc4ccccc4)[nH]c3c2)c(Cl)c1 [Example 14, 6-(2-Chloro-4-methylphenyl)-2-(phenylamino)-1H-benzo[d]imidazole-4-carboxylic acid]
1140 nM	Cc1ccc(-c2cc(C(=O)O)c3nc(CN4CCN(C)CC4=O)[nH]c3c2)c(Cl)c1 [Example 12, 6-(2-Chloro-4-methylphenyl)-2-[(4-methyl-2-oxopiperazin-1-yl)methyl]-1H-benzimidazole-4-carboxylic acid]
1020 nM	Cc1ccc(-c2cc(C(=O)O)c3nc(Cc4ccccc4)[nH]c3c2)c(Cl)c1 [Example 26, 2-Benzyl-6-(2-chloro-4-methylphenyl)-1H-benzo[d]imidazole-4-carboxylic acid]
590 nM	Cc1ccc(-c2cc(C(=O)O)c3nc(CN4CCNC(=O)C4)[nH]c3c2)c(Cl)c1 [Example 20, 6-(2-Chloro-4-methylphenyl)-2-[(3-oxopiperazin-1-yl)methyl]-1H-benzimidazole-4-carboxylic acid]
480 nM	CCN(CC)Cc1nc2c(C(=O)O)cc(-c3ccc(C)cc3Cl)cc2[nH]1 [Example 23, 6-(2-Chloro-4-methylphenyl)-2-(diethylaminomethyl)-1-benzimidazole-4-carboxylic acid]
380 nM	Cc1ccc(-c2cc(C(=O)O)c3nc(CN4CCN(C5CC5)CC4)[nH]c3c2)c(Cl)c1 [Example 9, 6-(2-Chloro-4-methylphenyl)-2-[(4-cyclopropylpiperazin-1-yl)methyl]-1H-benzimidazole-4-carboxylic acid]
360 nM	Cc1ccc(-c2cc(C(=O)O)c3nc(CN4CCCCC4)[nH]c3c2)c(Cl)c1 [Example 24, 6-(2-Chloro-4-methylphenyl)-2-(piperidin-1-ylmethyl)-1H-benzimidazole-4-carboxylic acid]
350 nM	Cc1ccc(-c2cc(C(=O)O)c3nc(CN4CCOCC4)[nH]c3c2)c(Cl)c1 [Example 28, 6-(2-Chloro-4-methylphenyl)-2-(morpholin-4-ylmethyl)-1H-benzimidazole-4-carboxylic acid]
260 nM	Cc1ccc(-c2cc(C(=O)O)c3nc(CN4CCC(F)(F)CC4)[nH]c3c2)c(Cl)c1 [Example 15, 6-(2-Chloro-4-methylphenyl)-2-[(4,4-difluoropiperidin-1-yl)methyl]-1H-benzimidazole-4-carboxylic acid]
130 nM	Cc1ccc(-c2cc(C(=O)O)c3nc(CN4CCN(C)CC4)[nH]c3c2)c(Cl)c1 [Example 22, 6-(2-Chloro-4-methylphenyl)-2-[(4-methylpiperazin-1-yl)methyl]-1-benzimidazole-4-carboxylic acid]

Source: patent publication US20230348398A1 (Hoffmann-La Roche Inc., priority 2020, published 2023)
